In US20260053932A1, “COMPOUNDS AND METHODS FOR THE TARGETED DEGRADATION OF ANDROGEN RECEPTOR AND ASSOCIATED METHODS OF USE” (Arvinas Operations, Inc., priority 2020, published 2026):
Like-named read-outs stand apart in the source and are kept apart here.

Test system: androgen receptor (AR) in LNCaP and/or VCaP cells
Assay: Androgen Receptor ELISA assay (AR degradation)
Assay type: cell-based
In short: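 VCaP cells grown ≥3 days, then treated 5 h with compound in media containing 1 nM R1881 (10× stock). Cells lysed and AR quantified by sandwich ELISA (mouse AR detection Ab, HRP anti-mouse, TMB). DC50 and Dmax derived from AR degradation.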

[1] = degradation of AR ELISA in LNCaP and/or VCaP cells, Table 2C, read-out: DC50 Code*
[2] = LNCaP and/or VCaP cells, 5 hours incubation, media with R1881, read-out: DC50 Code* (degradation of AR ELISA)

DC50 [1] [nM]	DC50 [2] [nM]	SMILES
< 1		[2H]C([2H])([2H])OCCN(CC1CCN(c2ccc(C(=O)N[C@H]3C(C)(C)[C@H](Oc4cc(C)c(C#N)c(C)c4)C3(C)C)cc2)CC1)[C@H]1C[C@H](Oc2cc(OC([2H])([2H])[2H])c3c(c2)C(=O)N(C2CCC(=O)NC2=O)C3=O)C1 (mixture of isomers) [compound 181, rac-N-((1r,3r)-3-(4-cyano-3,5-dimethylphenoxy)-2,2,4,4-tetramethylcyclobutyl)-4-(4-((((1r,3r)-3-((2-(2,6-dioxopiperidin-3-yl)-7-(methoxy-d3)-1,3-dioxoisoindolin-5-yl)oxy)cyclobutyl)(2-(methoxy-d3)ethyl)amino)methyl)piperidin-1-yl)benzamide]
< 1		COCCN(CC1CCN(c2ccc(C(=O)N[C@H]3C(C)(C)[C@H](Oc4ccc(C#N)c(Cl)c4)C3(C)C)cc2)CC1)[C@H]1C[C@H](Oc2cc(OC)c3c(c2)C(=O)N(C2CCC(=O)NC2=O)C3=O)C1 (stereo partly shown) [compound 105, N-((1r,3r)-3-(3-chloro-4-cyanophenoxy)-2,2,4,4-tetramethylcyclobutyl)-4-(4-((((1r,3r)-3-((2-(2,6-dioxopiperidin-3-yl)-7-methoxy-1,3-dioxoisoindolin-5-yl)oxy)cyclobutyl)(2-methoxyethyl)amino)methyl)piperidin-1-yl)benzamide]
> 100		CC1(C)[C@H](NC(=O)c2ccc(N3CCC(CN4CCN(c5ccc6c(c5)C(=O)N(C5CCC(=O)N(O)C5=O)C6=O)CC4)CC3)cc2)C(C)(C)[C@H]1Oc1ccc(C#N)c(Cl)c1 (stereo partly shown) [compound 142, N-((1r,3r)-3-(3-chloro-4-cyanophenoxy)-2,2,4,4-tetramethylcyclobutyl)-4-(4-((4-(2-(1-hydroxy-2,6-dioxopiperidin-3-yl)-1,3-dioxoisoindolin-5-yl)piperazin-1-yl)methyl)piperidin-1-yl)benzamide]
	> 100	COc1cc(O[C@H]2C[C@H](N(CC3CCN(c4ncc(C(=O)N[C@H]5CC[C@@H](Oc6cc(C)c(C#N)c(C)c6)C5)cn4)CC3)C(C)C)C2)cc2c1C(=O)N(C1CCC(=O)NC1=O)C2=O (stereo partly drawn) [Compound 9, N-((1S,3R)-3-(4-cyano-3,5-dimethylphenoxy)cyclopentyl)-2-(4-((((1r,3S)-3-((2-(2,6-dioxopiperidin-3-yl)-7-methoxy-1,3-dioxoisoindolin-5-yl)oxy)cyclobutyl) (isopropyl)amino)methyl)piperidin-1-yl)pyrimidine-5-carboxamide]
	> 100	COc1cc(O[C@@H]2CC[C@H](NC(=O)c3cnc(N4CCC(CN(C(C)C)[C@H]5C[C@H](Oc6ccc7c(c6)C(=O)N(C6CCC(=O)NC6=O)C7=O)C5)CC4)cn3)C2)ccc1C#N (stereo partly drawn) [Compound 11, N-((1S,3R)-3-(4-cyano-3-methoxyphenoxy)cyclopentyl)-5-(4-((((1r,3S)-3-((2-(2,6-dioxopiperidin-3-yl)-1,3-dioxoisoindolin-5-yl)oxy)cyclobutyl) (isopropyl)amino)methyl)piperidin-1-yl)pyrazine-2-carboxamide]
< 1		COCCN(CC1CCN(c2ncc(C(=O)N[C@H]3C(C)(C)[C@H](Oc4cc(C)c(C#N)c(C)c4)C3(C)C)cn2)CC1)[C@H]1C[C@H](Oc2ccc3c(c2)C(=O)N(C2CCC(=O)NC2=O)C3=O)C1 (stereo partly shown) [compound 91, N-((1r,3r)-3-(4-cyano-3,5-dimethylphenoxy)-2,2,4,4-tetramethylcyclobutyl)-2-(4-((((1r,3r)-3-((2-(2,6-dioxopiperidin-3-yl)-1,3-dioxoisoindolin-5-yl)oxy)cyclobutyl)(2-methoxyethyl)amino)methyl)piperidin-1-yl)pyrimidine-5-carboxamide]
	< 1	CC(C)N(CC1CCN(c2cnc(C(=O)N[C@H]3CC[C@H](Oc4ccc(C#N)c(Cl)c4)CC3)cn2)CC1)[C@H]1C[C@H](Oc2c(F)cc3c(c2F)C(=O)N(C2CCC(=O)NC2=O)C3=O)C1 (stereo partly shown) [Compound 45, N-((1r,4r)-4-(3-chloro-4-cyanophenoxy)cyclohexyl)-5-(4-((((1r,3r)-3-((2-(2,6-dioxopiperidin-3-yl)-4,6-difluoro-1,3-dioxoisoindolin-5-yl)oxy)cyclobutyl) (isopropyl)amino)methyl)piperidin-1-yl)pyrazine-2-carboxamide]
< 1		Cc1cc(O[C@H]2C(C)(C)[C@H](NC(=O)c3cnc(N4CC(CN5CCC(Oc6ccc7c(c6)C(=O)N(C6CCC(=O)NC6=O)C7=O)CC5)C4)cn3)C2(C)C)cc(C)c1C#N (stereo partly shown) [compound 117, N-((1r,3r)-3-(4-cyano-3,5-dimethylphenoxy)-2,2,4,4-tetramethylcyclobutyl)-5-(3-((4-((2-(2,6-dioxopiperidin-3-yl)-1,3-dioxoisoindolin-5-yl)oxy)piperidin-1-yl)methyl)azetidin-1-yl)pyrazine-2-carboxamide]
1 to 10		CC1(C)[C@H](NC(=O)c2ccc(N3CCC(CN4CCN(c5ccc6c(c5)C(=O)N(C5(F)CCC(=O)NC5=O)C6=O)CC4)CC3)cc2)C(C)(C)[C@H]1Oc1ccc(C#N)c(Cl)c1 (mixture of isomers) [compound 129, N-((1r,3r)-3-(3-chloro-4-cyanophenoxy)-2,2,4,4-tetramethylcyclobutyl)-4-(4-((4-(2-(3-fluoro-2,6-dioxopiperidin-3-yl)-1,3-dioxoisoindolin-5-yl)piperazin-1-yl)methyl)piperidin-1-yl)benzamide]
< 1		Cc1cc(O[C@H]2C(C)(C)[C@H](NC(=O)c3cnc(N4CCC(CN(CCN5CCOCC5)[C@H]5C[C@H](Oc6ccc7c(c6)C(=O)N(C6CCC(=O)NC6=O)C7=O)C5)CC4)cn3)C2(C)C)cc(C)c1C#N (stereo partly shown) [compound 230, N-((1r,3r)-3-(4-cyano-3,5-dimethylphenoxy)-2,2,4,4-tetramethylcyclobutyl)-5-(4-((((1r,3r)-3-((2-(2,6-dioxopiperidin-3-yl)-1,3-dioxoisoindolin-5-yl)oxy)cyclobutyl)(2-morpholinoethyl)amino)methyl)piperidin-1-yl)pyrazine-2-carboxamide]
< 1		COc1cc(O[C@H]2C(C)(C)[C@H](NC(=O)c3cnc(N4CCC(CN5CC(Oc6ccc7c(c6)C(=O)N(C6CCC(=O)NC6=O)C7=O)C5)CC4)cn3)C2(C)C)ccc1C#N (stereo partly shown) [compound 93, N-((1r,3r)-3-(4-cyano-3-methoxyphenoxy)-2,2,4,4-tetramethylcyclobutyl)-5-(4-((3-((2-(2,6-dioxopiperidin-3-yl)-1,3-dioxoisoindolin-5-yl)oxy)azetidin-1-yl)methyl)piperidin-1-yl)pyrazine-2-carboxamide]
	< 1	CC(C)N(CC1CN(c2ncc(C(=O)N[C@H]3CC[C@H](Oc4ccc(C#N)c(Cl)c4)CC3)cn2)C1)[C@H]1C[C@H](Oc2ccc3c(c2)C(=O)N(C2CCC(=O)NC2=O)C3=O)C1 (stereo partly shown) [Compound 66, N-((1r,4r)-4-(3-chloro-4-cyanophenoxy)cyclohexyl)-2-(3-((((1r,3r)-3-((2-(2,6-dioxopiperidin-3-yl)-1,3-dioxoisoindolin-5-yl)oxy)cyclobutyl) (isopropyl)amino)methyl)azetidin-1-yl)pyrimidine-5-carboxamide]
	> 100	CC1(C)[C@H](NC(=O)c2ccn([C@H]3CC[C@H](CCCOc4ccc5c(c4)C(=O)N(C4CCC(=O)NC4=O)C5=O)CC3)n2)C(C)(C)[C@H]1Oc1ccc(C#N)c(Cl)c1 (stereo partly drawn) [Compound 72, N-((1r,3R)-3-(3-chloro-4-cyanophenoxy)-2,2,4,4-tetramethylcyclobutyl)-1-((1r,4R)-4-(3-((2-(2,6-dioxopiperidin-3-yl)-1,3-dioxoisoindolin-5-yl)oxy)propyl)cyclohexyl)-1H-pyrazole-3-carboxamide]
